Test systems include Serratia sp. ATCC 39006; Escherichia coli UB1005; Bacillus cereus AS1.126; Escherichia coli AS1.349; Bacillus subtilis; Escherichia coli.
Assay in all cases: ≥ marks a high value that may be exact or a test limit, other limits are often not marked, values filed in µg/mL are converted to µM
Experiment [1] concerns Enterococcus faecalis ATCC 29212.
For experiment [2], the system named is Escherichia coli ATCC 25922.
Experiment [3] relates to Klebsiella pneumoniae ATCC 700603.
Experiment [4] concerns Micrococcus luteus ATCC 49732.
In experiment [5] the test system is Neisseria gonorrhoeae ATCC 49226.
Experiment [6] deals with Proteus vulgaris ATCC 49132.
Experiment [7] concerns Salmonella enterica subsp. enterica serovar Typhimurium ATCC 14028.
In experiment [8] the test system is Shigella sonnei ATCC 25931.
The test system of experiment [9] is Staphylococcus aureus ATCC 25923.
The test system of experiment [10] is Staphylococcus aureus ATCC 43330.
The test system of experiment [11] is Staphylococcus epidermidis ATCC 12228.
Experiment [12] has as its system Staphylococcus saprophyticus ATCC 15305.
Experiment [13] concerns Streptococcus agalactiae ATCC 12386.
In experiment [14] the test system is Pseudomonas aeruginosa ATCC 10419.
For experiment [15], the system named is Pseudomonas aeruginosa ATCC 21625.
Experiment [16] relates to Pseudomonas aeruginosa ATCC 21630.
Experiment [17] concerns Pseudomonas aeruginosa ATCC 27853.
In experiment [18] the test system is Pseudomonas aeruginosa LCCE.
For experiment [19], the system named is Pseudomonas aeruginosa LCCI.
The subject of experiment [20] is Pseudomonas aeruginosa LCGE.
Experiment [21] has as its system Pseudomonas aeruginosa LC.
The subject of experiment [22] is Salmonella enterica subsp. enterica serovar Typhimurium C77-31.
For experiment [23], the system named is Staphylococcus aureus ATCC 29213.
Experiment [24] relates to Staphylococcus aureus BCRC 10780.
In experiment [25] the test system is Streptococcus pneumoniae BCRC 10794.
Experiment [26] concerns Enterobacter cloacae CGMCC 1.58.
In experiment [27] the test system is Enterococcus faecalis CGMCC 1.595.
The test system of experiment [28] is Enterococcus faecium CGMCC 1.2334.
In experiment [29] the test system is Klebsiella pneumoniae subsp. pneumoniae CGMCC 1.176.
The subject of experiment [30] is Proteus mirabilis CICC 22931.
For experiment [31], the system named is Pseudomonas aeruginosa 0108.
In experiment [32] the test system is Pseudomonas aeruginosa CGMCC 1.860.
The subject of experiment [33] is Staphylococcus aureus AS1.72.
The subject of experiment [34] is Staphylococcus epidermidis CICC 23664.
For experiment [35], the system named is Staphylococcus epidermidis.
The test system of experiment [36] is Klebsiella pneumoniae ATCC 13883.
The subject of experiment [37] is Streptococcus pyogenes ATCC 19615.
Experiment [38] has as its system Staphylococcus aureus ATCC 25023.

Values after ≈ are worked out from the molar mass of the structure shown.

For orientation: MIC means the lowest concentration found to suppress growth. A high value points to weaker potency.

With `CC[C@H](C)[C@H](NC(=O)[C@H](CCCCN)NC(=O)[C@H](CCCN=C(N)N)NC(=O)[C@H](CC(C)C)NC(=O)[C@H](Cc1ccccc1)NC(=O)[C@H](CCCN=C(N)N)NC(=O)CNC(=O)[C@H](Cc1ccccc1)NC(=O)[C@@H](N)CCCN=C(N)N)C(=O)N[C@@H](CCCN=C(N)N)C(=O)N[C@@H](CCCN=C(N)N)C(=O)N[C@@H](Cc1ccccc1)C(=O)N[C@@H](CCCN=C(N)N)C(=O)N1CCC[C@H]1C(=O)N[C@@H](CCCCN)C(=O)N[C@H](C(=O)N[C@H](C(=O)N[C@H](C(=O)N[C@H](C(=O)N[C@H](C(=O)N[C@@H](CCC(N)=O)C(=O)NCC(=O)N[C@@H](CO)C(=O)N[C@@H](C)C(=O)N[C@@H](CCCN=C(N)N)C(=O)N[C@@H](Cc1ccccc1)C(N)=O)[C@@H](C)CC)[C@@H](C)O)[C@@H](C)CC)[C@@H](C)O)C(C)C` [RFGRFLRKIRRFRPKVTITIQGSARF], the MIC is 2.25 µM (≈ 7.21 µg/mL) in experiment [1]; 1.62 µM (≈ 5.21 µg/mL) in experiment [2]; 4.55 µM (≈ 14.6 µg/mL) in experiment [3]; 0.814 µM (≈ 2.61 µg/mL) in experiment [4]; 5.2 µM (≈ 16.7 µg/mL) in experiment [5]; 3.25 µM (≈ 10.4 µg/mL) in [6]. The MIC stood at 2.25 µM (≈ 7.21 µg/mL) in [7]; 3.9 µM (≈ 12.5 µg/mL) against Serratia sp. ATCC 39006; 3.9 µM (≈ 12.5 µg/mL) in experiment [8]; 2.25 µM (≈ 7.21 µg/mL) in experiment [9]; 2.6 µM (≈ 8.33 µg/mL) in experiment [10]; 2.92 µM (≈ 9.37 µg/mL) in experiment [11]. The results for the MIC in [12] and in experiment [13] were 0.976 µM (≈ 3.13 µg/mL) and 2.6 µM (≈ 8.33 µg/mL), respectively.
Take `CC[C@H](C)[C@H](NC(=O)[C@H](CCCCN)NC(=O)[C@H](CCCCN)NC(=O)[C@H](CC(C)C)NC(=O)[C@H](CCCN=C(N)N)NC(=O)[C@H](CCCCN)NC(=O)[C@H](CCCN=C(N)N)NC(=O)[C@@H](NC(=O)[C@H](CCCCN)NC(=O)[C@H](CCCCN)NC(=O)[C@H](CCCN=C(N)N)NC(=O)[C@H](CC(C)C)NC(=O)[C@H](CCCN=C(N)N)NC(=O)[C@H](CCCN=C(N)N)NC(=O)[C@H](Cc1ccccc1)NC(=O)[C@@H](N)CCCN=C(N)N)[C@@H](C)O)C(N)=O` [RFRRLRKKTRKRLKKI]: the MIC in [1] is 128 µM (≈ 279 µg/mL); in experiment [2] it was 128 µM (≈ 279 µg/mL); in the experiment with Escherichia coli UB1005 it was ≥ 128 µM; in experiment [14] it was ≥ 256 µM; in experiment [15], ≥ 256 µM; in experiment [16], ≥ 256 µM. Besides, the minimal inhibitory concentration (MIC) is 256 µM (≈ 559 µg/mL) in [17]; ≥ 256 µM in experiment [18]; ≥ 256 µM in experiment [19]; ≥ 256 µM in experiment [20]; ≥ 32 µM in [21]; ≥ 128 µM in [22]. Besides, the MIC in [23] worked out at 128 µM (≈ 279 µg/mL); in experiment [11], 32 µM (≈ 69.8 µg/mL).
Turning to `CC[C@H](C)[C@H](NC(=O)[C@H](CCSC)NC(C)=O)C(=O)N[C@@H](Cc1cnc[nH]1)C(=O)NCC(=O)N[C@@H](CC(C)C)C(=O)N[C@H](C(=O)N[C@H](C(=O)N[C@@H](CCCN=C(N)N)C(=O)N[C@@H](CCCN=C(N)N)C(N)=O)[C@@H](C)O)C(C)C` [MIHGLVTRR], the MIC in experiment [24] and in [25] was ≥ 92.4 µM in each case.
As for `CC[C@H](C)[C@H](N)C(=O)N[C@@H](CCCCN)C(=O)N[C@@H](CCCCN)C(=O)N[C@@H](Cc1c[nH]c2ccccc12)C(=O)N[C@@H](Cc1c[nH]c2ccccc12)C(=O)N[C@@H](CO)C(=O)N[C@@H](CCCCN)C(=O)N[C@H](C(=O)N[C@@H](CCCCN)C(=O)N[C@@H](CCCCN)C(=O)N[C@@H](CC(C)C)C(=O)N[C@@H](CC(C)C)C(=O)N[C@@H](CCCCN)C(N)=O)[C@@H](C)CC` [IKKWWSKIKKLLK], the MIC against Bacillus cereus AS1.126 was found to be 3.13 µM (≈ 5.32 µg/mL); in experiment [26], 0.78 µM (≈ 1.32 µg/mL); in experiment [27] it was 0.78 µM (≈ 1.32 µg/mL); in experiment [28], 1.56 µM (≈ 2.65 µg/mL); in the experiment with Escherichia coli AS1.349 it was 3.13 µM (≈ 5.32 µg/mL); in experiment [29] it was 25 µM (≈ 42.5 µg/mL). Also, the MIC in experiment [30] was found to be 6.25 µM (≈ 10.6 µg/mL); in [31], 12.5 µM (≈ 21.2 µg/mL); in experiment [32], 3.13 µM (≈ 5.32 µg/mL); in [33], 1.56 µM (≈ 2.65 µg/mL); in experiment [34] it was 1.56 µM (≈ 2.65 µg/mL); in experiment [35] it was 3.12 µM (≈ 5.3 µg/mL).
Take `CC[C@H](C)[C@H](NC(=O)[C@@H]1CCCN1C(=O)[C@H](CC(C)C)NC(=O)[C@@H](N)CC(C)C)C(=O)N[C@H](C(=O)NCC(=O)N[C@@H](CC(N)=O)C(=O)N[C@@H](CC(C)C)C(=O)N[C@@H](CC(C)C)C(=O)N[C@@H](CCCCN)C(=O)N[C@@H](CO)C(=O)N[C@@H](CC(C)C)C(=O)N[C@@H](CC(C)C)C(=O)NCC(=O)N[C@@H](Cc1c[nH]c2ccccc12)C(=O)N[C@@H](CCCCN)C(=O)N[C@@H](CCCN=C(N)N)C(=O)N[C@@H](CCCCN)C(=O)N[C@@H](C)C(=O)N[C@@H](Cc1ccccc1)C(=O)NCC(N)=O)C(C)C` [LLPIVGNLLKSLLGWKRKAFG]: the MIC with Bacillus subtilis is ≥ 50 µM; in experiment [1], 100 µM (≈ 232 µg/mL); with Escherichia coli, 100 µM (≈ 232 µg/mL); in experiment [36] it was ≥ 200 µM; in experiment [17], 200 µM (≈ 465 µg/mL); in experiment [7], > 200 µM. Besides, the MIC in experiment [9] was 50 µM (≈ 116 µg/mL); in experiment [37] it was ≥ 100 µM.
For the compound `CC(C)C[C@H](NC(=O)[C@H](CCCN=C(N)N)NC(=O)[C@H](CC(C)C)NC(=O)[C@H](CC(C)C)NC(=O)[C@H](CC(C)C)NC(=O)[C@H](CC(C)C)NC(=O)[C@H](CC(C)C)NC(=O)[C@H](CCCCN)NC(=O)[C@H](CC(C)C)NC(=O)[C@@H](N)CCCN=C(N)N)C(N)=O` [RLKLLLLLRL], the MIC in experiment [38] was 6.4 µM (≈ 7.99 µg/mL).

(Values after DBAASP.)
